Reference: patent US11999746B2, “Compounds” (GlaxoSmithKline Intellectual Property Development Limited, priority 2014, dated 2024)
Counter-ions that a name gives are not always drawn.

Assays:
Lp-PLA2 in human plasma = target: T1, Lp-PLA2 in human plasma (Homo sapiens, UniProt Q13093); test: (3b) Lp-PLA2 human plasma alternative Thio-PAF assay; type: biochemical; conditions: (3b) alternative Thio-PAF assay, pooled human plasma; Examples of 266-412 were tested here; read-out: pIC50 in the Lp-PLA2 human plasma assay (converted)
T1 construct: from tissue; host or cells: pooled human plasma
T1 sequence (Q13093 22-441): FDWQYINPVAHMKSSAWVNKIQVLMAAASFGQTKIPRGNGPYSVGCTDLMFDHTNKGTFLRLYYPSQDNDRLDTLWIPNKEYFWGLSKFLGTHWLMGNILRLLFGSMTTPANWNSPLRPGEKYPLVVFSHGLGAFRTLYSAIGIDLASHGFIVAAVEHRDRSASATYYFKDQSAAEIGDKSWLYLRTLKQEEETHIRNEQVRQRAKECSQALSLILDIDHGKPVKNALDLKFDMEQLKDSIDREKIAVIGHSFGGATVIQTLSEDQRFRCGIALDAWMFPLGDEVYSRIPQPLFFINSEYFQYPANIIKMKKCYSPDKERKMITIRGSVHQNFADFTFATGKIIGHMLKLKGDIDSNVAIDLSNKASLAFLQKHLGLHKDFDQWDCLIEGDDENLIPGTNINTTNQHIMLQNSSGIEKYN
Method in brief: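 Pooled human plasma was preincubated with compound for 15 min at RT. Substrate solution (2 mM 2-thio-PAF, 52 μM CPM, 2.5 mM NEM in 50 mM HEPES pH 7.4, 150 mM NaCl, 1 mM CHAPS; pre-addition concentrations) was added, and the reaction was quenched with 5% TFA after 3 min. Fluorescence was read at ex 380/em 485 nm and fitted to give pIC50.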

[1] = target: T2, recombinant human Lp-PLA2 (Homo sapiens, UniProt Q13093); test: (1b) hrThioPAF assay, recombinant human Lp-PLA2; type: biochemical; conditions: Examples 266-412 were tested here, one experiment or average of multiple experiments, read-out: rhLp-PLA2 (pIC50) (converted)
T2 sequence (Q13093 22-441): T1 sequence (Q13093 22-441)
Method in brief: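 Fluorogenic assay: 20 pM rhLp-PLA2 in 50 mM HEPES pH 7.4, 150 mM NaCl, 1 mM CHAPS with 1:3 serially diluted compounds; substrate mix of 40 μM 2-thio-PAF, 40 μM CPM, 400 μM NEM (pre-addition levels). 20 min at 25 °C in the dark; fluorescence ex 380/em 485 nm, pIC50 by curve fitting.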

SMILES	IC50 (Lp-PLA2 in human plasma) [nM]	IC50 [1] [nM]
CC(C)(N)CC(=O)N1CCN2c3cc(OCc4ccc(F)c(F)c4)nc(=O)n3CC2C1 (stereo not drawn) [Example E334, 2-(3-Amino-3-methylbutanoyl)-7-((3,4-difluorobenzyl)oxy)-3,4,11,11a-tetrahydro-1H-pyrazino[1′,2′:3,4]imidazo[1,2-c]pyrimidin-9(2H)-one]	≤ 100	≤ 10000
CC(C)(N)C(=O)N1CCN2c3cc(OCc4ccc(F)c(F)c4)nc(=O)n3CC2C1 (stereo not drawn) [Example E335, 2-(2-Amino-2-methylpropanoyl)-7-((3,4-difluorobenzyl)oxy)-3,4,11,11a-tetrahydro-1H-pyrazino[1,2′:3,4]imidazo[1,2-c]pyrimidin-9(2H)-one]	≤ 100	≤ 10000
O=c1nc(OCc2ccc(F)c(F)c2)cc2n1CC1COCCN21 (stereo not drawn) [Example E336, 7-((3,4-Difluorobenzyl)oxy)-3,4,11,11a-tetrahydropyrimido[6′,1′:2,3]imidazo[5,1-c][1,4] oxazin-9(1H)-one]	≤ 100	≤ 10000
CN(C)CCC(=O)N1CCN2c3cc(OCc4ccc(F)c(F)c4)nc(=O)n3CC2C1 (stereo not drawn) [Example E337, 7-((3,4-Difluorobenzyl)oxy)-2-(3-(dimethylamino)propanoyl)-3,4,11,11a-tetrahydro-1H-pyrazino[1,2′:3,4]imidazo[1,2-c]pyrimidin-9(2H)-one]	≤ 100	≤ 10000
O=c1nc(OCc2ccc(F)c(F)c2)cc2n1CC1CN(CC(F)(F)F)CCN21 (stereo not drawn) [Example E338, 7-((3,4-Difluorobenzyl)oxy)-2-(2,2,2-trifluoroethyl)-3,4,11,11a-tetrahydro-1H pyrazino[1′,2′:3,4]imidazo[1,2-c]pyrimidin-9(2H)-one trifluoroacetate]	≤ 100	10
O=C([C@@H]1CCN1)N1CCN2c3cc(OCc4ccc(F)c(F)c4)nc(=O)n3CC2C1 (stereo partly drawn) [Example E339, 2-((S)-azetidine-2-carbonyl)-7-((3,4-difluorobenzyl)oxy)-3,4,11,11a-tetrahydro-1H-pyrazino[1′,2′:3,4]imidazo[1,2-c]pyrimidin-9(2H)-one]	≤ 100	≤ 10000
O=C([C@@H]1CCCN1)N1CCN2c3cc(OCc4ccc(F)c(F)c4)nc(=O)n3CC2C1 (stereo partly drawn) [Example E340, 7-((3,4-Difluorobenzyl)oxy)-2-((S)-pyrrolidine-2-carbonyl)-3,4,11,11a-tetrahydro-1H-pyrazino[1,2′:3,4]imidazo[1,2-c]pyrimidin-9(2H)-one]	≤ 100	≤ 10000
O=C([C@@H]1C[C@H](F)CN1)N1CCN2c3cc(OCc4ccc(F)c(F)c4)nc(=O)n3CC2C1 (stereo partly drawn) [Example E341, 7-((3,4-Difluorobenzyl)oxy)-2-((2S,4S)-4-fluoropyrrolidin-2-carbonyl)-3,4,11,11a-tetrahydro-1H-pyrazino[1′,2′:3,4]imidazo[1,2-c]pyrimidin-9(2H)-one]	≤ 100	≤ 10000
O=C([C@@H]1CC(F)(F)CN1)N1CCN2c3cc(OCc4ccc(F)c(F)c4)nc(=O)n3CC2C1 (stereo partly drawn) [Example E342, 7-((3,4-Difluorobenzyl)oxy)-2-((S)-4,4-difluoropyrrolidin-2-carbonyl)-3,4,11,11a-tetrahydro-1H-pyrazino[1,2′:3,4]imidazo[1,2-c]pyrimidin-9(2H)-one]	≤ 100	≤ 10000
O=C([C@H]1CCCN1)N1CCN2c3cc(OCc4ccc(F)c(F)c4)nc(=O)n3CC2C1 (stereo partly drawn) [Example E343, 7-((3,4-Difluorobenzyl)oxy)-2-((R)-pyrrolidine-2-carbonyl)-3,4,11,11a-tetrahydro-1H-pyrazino[1,2′:3,4]imidazo[1,2-c]pyrimidin-9(2H)-one]	≤ 100	≤ 10000
NC1(C(=O)N2CCN3c4cc(OCc5ccc(F)c(F)c5)nc(=O)n4CC3C2)CCC1 (stereo not drawn) [Example E344, 2-(1-Aminocyclobutanecarbonyl)-7-((3,4-difluorobenzyl)oxy)-3,4,11,11a-tetrahydro-1H-pyrazino[1,2′:3,4]imidazo[1,2-c]pyrimidin-9(2H)-one]	≤ 100	≤ 10000
NC1(C(=O)N2CCN3c4cc(OCc5ccc(F)c(F)c5)nc(=O)n4CC3C2)CCOCC1 (stereo not drawn) [Example E345, 2-(4-Aminotetrahydro-2H-pyran-4-carbonyl)-7-((3,4-difluorobenzyl)oxy)-3,4,11,11a-tetrahydro-1H-pyrazino[1,2′:3,4]imidazo[1,2-c]pyrimidin-9(2H)-one]	≤ 100	≤ 10000
CN(C)CC(=O)N1CCN2c3cc(OCc4ccc(F)c(F)c4)nc(=O)n3CC2C1 (stereo not drawn) [Example E346, 7-((3,4-Difluorobenzyl)oxy)-2-(2-(dimethylamino)acetyl)-3,4,11,11a-tetrahydro-1H-pyrazino[1,2′:3,4]imidazo[1,2-c]pyrimidin-9(2H)-one]	≤ 100	≤ 10000
NC1(C(=O)N2CCN3c4cc(OCc5ccc(F)c(F)c5)nc(=O)n4CC3C2)CCCCC1 (stereo not drawn) [Example E347, 2-(1-Aminocyclohexanecarbonyl)-7-((3,4-difluorobenzyl)oxy)-3,4,11,11a-tetrahydro-1H-pyrazino[1,2′:3,4]imidazo[1,2-c]pyrimidin-9(2H)-one]	≤ 100	≤ 10000
N#Cc1cc(COc2cc3n(c(=O)n2)CC2CNC(=O)CN32)ccc1F (stereo not drawn) [Example E349, 5-(((3,9-Dioxo-2,3,4,9,11,11a-hexahydro-1H-pyrazino[1′,2′:3,4]imidazo[1,2-c]pyrimidin-7-yl)oxy)methyl)-2-fluorobenzonitrile]	≤ 100	≤ 10000
O=C1CN2c3cc(OCc4cc(F)c(Oc5ccnc(C(F)(F)F)c5)c(F)c4)nc(=O)n3CC2CN1 (stereo not drawn) [Example E351, 7-((3,5-Difluoro-4-((2-(trifluoromethyl)pyridin-4-yl)oxy)benzyl)oxy)-11,11a-dihydro-1H-pyrazino[1′,2′:3,4]imidazo[1,2-c]pyrimidine-3,9(2H,4H)-dione]	≤ 100	≤ 1

The remaining lines, values ahead:

IC50 (Lp-PLA2 in human plasma) [nM]	IC50 [1] [nM]	SMILES
≤ 100	0.501	O=C1CN2c3cc(OCc4cc(F)c(Oc5cncc(C(F)(F)F)c5)c(F)c4)nc(=O)n3CC2CN1 (stereo not drawn) [Example E352, 7-((3,5-Difluoro-4-((5-(trifluoromethyl)pyridin-3-yl)oxy)benzyl)oxy)-11,11a-dihydro-1H-pyrazino[1,2′:3,4]imidazo[1,2-c]pyrimidine-3,9(2H,4H)-dione]
≤ 100	≤ 10000	O=C1CN2c3cc(OCc4ccc(F)c(F)c4)nc(=O)n3CC2CN1 (stereo not drawn) [Example E356, 7-((3,4-difluorobenzyl)oxy)-11,11a-dihydro-1H-pyrazino[1′,2′:3,4]imidazo[1,2-c]pyrimidine-3,9(2H,4H)-dione]
≤ 100	≤ 10000	CN1CC2Cn3c(cc(OCc4ccc(F)c(C#N)c4)nc3=O)N2CC1=O (stereo not drawn) [Example E357, 2-Fluoro-5-(((2-methyl-3,9-dioxo-2,3,4,9,11,11a-hexahydro-1H-pyrazino[1,2′:3,4]imidazo[1,2-c]pyrimidin-7-yl)oxy)methyl)benzonitrile]
≤ 100	≤ 10000	O=C1CN2c3cc(OCc4ccc(F)c(F)c4)nc(=O)n3CC2CN1CC(F)(F)F (stereo not drawn) [Example E358, 7-((3,4-Difluorobenzyl)oxy)-2-(2,2,2-trifluoroethyl)-11,11a-dihydro-1Hpyrazino[1′,2′:3,4] imidazo[1,2-c]pyrimidine-3,9(2H,4H)-dione]
≤ 100	≤ 10000	CN1CC2Cn3c(cc(OCc4ccc(F)c(F)c4)nc3=O)N2CC1=O (stereo not drawn) [Example E359, 7-((3,4-Difluorobenzyl)oxy)-2-methyl-11,11a-dihydro-1H-pyrazino[1,2′:3,4]imidazo[1,2-c]pyrimidine-3,9(2H,4H)-dione]
≤ 100	≤ 10000	Cc1ccc(Oc2c(F)cc(COc3cc4n(c(=O)n3)CC3CN(C)C(=O)CN43)cc2F)cn1 (stereo not drawn) [Example E360, 7-((3,5-difluoro-4-((6-methylpyridin-3-yl)oxy)benzyl)oxy)-2-methyl-11,11a-dihydro-1H-pyrazino[1′,2′:3,4]imidazo[1,2-c]pyrimidine-3,9(2H,4H)-dione, trifluoroacetic acid salt]
≤ 100	≤ 100	N#Cc1cc(COc2cc3n(c(=O)n2)CC2CSCCN32)ccc1F (stereo not drawn) [Example E364, 2-Fluoro-5-(((9-oxo-1,3,4,9,11,11a-hexahydropyrimido[6′,1′:2,3]imidazo[5,1-c][1,4]thiazin-7-yl)oxy)methyl)benzonitrile]
≤ 100	≤ 10000	N#Cc1cc(COc2cc3n(c(=O)n2)CC2C[S+]([O-])CCN32)ccc1F (stereo not drawn) [Example E366, 2-Fluoro-5-(((2-oxido-9-oxo-1,3,4,9,11,11a-hexahydropyrimido[6′,1′:2,3]imidazo[5,1-c][1,4]thiazin-7-yl)oxy)methyl)benzonitrile]
